In EP4778933A1 (Chengdu Hyperway Pharmaceuticals Co., Ltd., priority 2023, dated 2025):

What was measured:
LoVo (KRAS G13D) = assay: 3D cell proliferation inhibition test (CellTiter-Glo 3D, 7 days), LoVo; type: cell-based; conditions: Homo sapiens, 168 h, read-out: Inhibitory activity on cell proliferation (IC50) LoVo (KRAS G13D)
Method: The diluted compounds to be tested were added to 384-well low-adhesion KRAS mutant types (such as GP2D, NCI H358, LoVo, RKN and KP2) of cell culture plates by using a nanoliter pipetting system (LABCYTE, P-0200). Then, the cells were plated and incubated in a 37°C, 5% CO2 incubator for 7 days. Afterward, CellTiter-Glo® 3D reagent was added, and the luminescent values were read by an Envision multifunctional microplate reader (the luminescent signal is proportional to the amount of ATP in the system, and the ATP content directly represents the number of viable cells in the system). Finally, the IC50 values (half-maximal inhibitory concentration) of the compounds were obtained by the XLFIT software using the nonlinear fitting formula.
• a) The diluted compounds to be tested were added to 384-well low-adhesion KRAS mutant types of cell culture plates by using a nanoliter pipetting system. • b) Cells were seeded into the 384-well plates in a) and then centrifuged at 1000 rpm for 1 min at room temperature, with a final DMSO concentration of compound being 0.5%. The plates were then incubated in a 5% CO2 constant-temperature incubator at 37°C for 7 days. • c) CellTiter-Glo® 3D was added to the 384-well cell culture plates in b), shaken in the dark, and incubated at room temperature. • d) The luminescence values were read by using an Envision multifunctional microplate reader. […]

[1] = In vivo pharmacokinetic test in mice; conditions: 30 mg/kg, female BALB/c mice, single dose 30 mg/kg, plasma
[2] = In vivo pharmacokinetic test in rats; design: species or system SD Rats; conditions: male rats; for F: oral 30 mg/kg vs intravenous; for AUC / Cmax: rat, oral, single dose 30 mg/kg, plasma
Method: Each test compound was administered orally once to male […] rats for pharmacokinetic study. The test compounds were prepared on the day of administration. The intravenous administration solvent: 5% DMSO + 10% solutol + 85% saline; and the oral administration solvent: 50 mM sodium citrate (pH 5.0) + 10% captisol. The oral administration was conducted in a dose of 30 mg/kg. The animals were fasted for 10-14 h before oral administration, and the feeding was resumed 4 h after administration. Pharmacokinetic samples were collected through the orbit. The collection time points were: 5 min (intravenous administration), 15 min, 30 min, 1 h, 2 h, 4 h, 6 h, 8 h and 24 h after administration. Three whole blood samples were collected at each time point, with a collection volume of about 0.2 mL, and anticoagulated with sodium heparin. After blood samples were collected, they were immediately placed on ice and centrifuged within 1 h to isolate plasma (centrifugation conditions: 8000 rpm, 1 min, 2-8°C). The collected plasma was stored in a -20°C refrigerator before analysis. The concentrations of compounds in the plasma samples were determined using an LC-MS/MS analysis method. Table 4: Pharmacokinetic test results of some compounds in SD Rats

AUC ([1]; oral) [ng·h/mL] | Cmax ([1]; oral) [ng/mL] | AUC ([2]; Sprague-Dawley (SD)) [ng·h/mL] | Cmax ([2]; Sprague-Dawley (SD)) [ng/mL] | Structure (SMILES) | IC50 (LoVo (KRAS G13D)) [nM] | AUC ([1]; mouse, in vivo, po, read-out: AUC) [ng·h/mL] | Cmax ([1]; mouse, in vivo, po, read-out: Cmax) [ng/mL] | F [2] [%] | AUC ([2]; in vivo) [ng·h/mL] | Cmax ([2]; in vivo) [ng/mL]
– | – | – | – | CC1(O)COCCN(c2nc(OCC34CCCN3C(c3cc(F)c(F)c(F)c3)CC4)nc3c(F)c(-c4cccc5sc(N)c(C#N)c45)c(Br)cc23)C1 (single isomer, unassigned) [Example 26, 2-amino-4-[6-bromo-8-fluoro-4-(6-hydroxy-6-methyl-1,4-oxazepan-4-yl)-2-({[3-(3,4,5-trifluoropheny 1)-2,3,5,6,7,7a-hexahydro-1H-pyrrolizin-7a-yl]methyl}oxy)quinazolin-7-yl]benzo[b]thiophene-3-carb onitrile] | 14.2 | 15800 | 4880 | 22.3 | 12400 | 1190
20953 | 5124 | 11300 | 1030 | CC1(O)COCCN(c2nc(OCC34CCCN3C(c3cc(F)c(F)c(F)c3)CC4)nc3c(F)c(-c4cccc5sc(N)c(C#N)c45)c(I)cc23)C1 (single isomer, unassigned) [Example 31, 2-amino-4-[6-iodo-8-fluoro-4-(6-hydroxy-6-methyl-1,4-oxazepan-4-yl)-2-({[3-(3,4,5-trifluorophenyl)-2,3,5,6,7,7a-hexahydro-1H-pyrrolizin-7a-yl]methyl}oxy)quinazolin-7-yl]benzo[b]thiophene-3-carbonitrile] | 20.6 | – | – | 21.5 | – | –
